We go through one compound from PMC2233693 (The Journal of General Physiology, 2000).

Where a chain is given by its changes, count along the chain named. Like-named read-outs stand apart in the source and are kept apart here.

For assay [1], the target named is T1, E340D mutant bovine olfactory CNG channel (Bos taurus, UniProt Q03041, E340D).
T1 sequence (Q03041 1-663 E340D): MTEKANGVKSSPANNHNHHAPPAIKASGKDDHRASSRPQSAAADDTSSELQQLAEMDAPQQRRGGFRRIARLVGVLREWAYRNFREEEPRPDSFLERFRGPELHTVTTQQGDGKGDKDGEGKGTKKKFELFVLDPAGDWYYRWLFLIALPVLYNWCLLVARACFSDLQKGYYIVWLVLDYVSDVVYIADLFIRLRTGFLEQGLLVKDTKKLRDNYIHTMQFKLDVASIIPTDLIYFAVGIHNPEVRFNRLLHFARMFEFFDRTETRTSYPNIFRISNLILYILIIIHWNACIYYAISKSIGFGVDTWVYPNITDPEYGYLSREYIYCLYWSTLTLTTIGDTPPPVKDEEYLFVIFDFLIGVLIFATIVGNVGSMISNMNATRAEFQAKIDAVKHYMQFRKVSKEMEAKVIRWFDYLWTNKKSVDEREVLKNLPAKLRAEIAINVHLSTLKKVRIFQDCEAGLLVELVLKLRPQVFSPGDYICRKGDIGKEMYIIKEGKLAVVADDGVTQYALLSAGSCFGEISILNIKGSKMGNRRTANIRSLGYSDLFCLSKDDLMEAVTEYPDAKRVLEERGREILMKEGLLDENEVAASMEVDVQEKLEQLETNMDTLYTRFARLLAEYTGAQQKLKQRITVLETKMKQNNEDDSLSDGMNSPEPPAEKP
It is filed as biochemical.

The target in assay [2] is T2, wild-type bovine olfactory CNG channel (α3 subunit) (Bos taurus, UniProt Q03041).
T2 sequence (Q03041 1-663): T1 sequence (Q03041 1-663 E340D) with D340E
It is filed as biochemical. The note with it: cGMP.

With `Nc1nc2c(ncn2[C@@H]2O[C@@H]3COP(=O)(O)O[C@H]3[C@H]2O)c(=O)[nH]1` [cGMP], the “n(−80 mV), Hill coefficient” value in assay [1] (cGMP) amounted to 2.6 ± 0.4. Moreover, in assay [1] (cGMP-gated current), the “I(−80 mV)/I(+80 mV)” value was found to be 1.30 ± 0.10. In addition, the EC50 is 4.8 ± 1.1 µM in assay [1] (read-out: K 1/2, cGMP, +80 mV); 4.9 ± 1.1 µM in assay [1] (read-out: K 1/2, cGMP, −80 mV); 4.5 µM in assay [1] (read-out: K 1/2,cG, −80 mV, single patch, Fig. 1 fit). In addition, in assay [1] (−80 mV, single patch, Fig. 1 fit), the “n cG” value was 2.7. Also, in assay [2], the “P max (+80 mV)” value was determined as 0.993 ± 0.004. Further, in assay [2], the “P max (−80 mV)” value was determined as 0.996 ± 0.001. For the same compound, the “L, equilibrium gating constant” value in assay [2] (allosteric model fit, mean ± SD) came out at 334 ± 82.
